The values below come from patent publication US20240383954A1, “PEPTIDE INHIBITORS OF INTERLEUKIN-23 RECEPTOR AND THEIR USE TO TREAT INFLAMMATORY DISEASES” (Janssen Biotech, Inc., priority 2020, published 2024).

Positions of bridges follow the written chain, without caps; N, C: chain ends. Non-standard residues stand in square brackets, D forms with d. Residues, ends and D or L forms follow the SMILES beside them. *: point of attachment. Trp(7-Me) = Cc1cccc2c(C[C@H](N)C(=O)O)c[nH]c12; Phe(4-NH2) = Nc1ccc(C[C@H](N)C(=O)O)cc1; 2Nal = N[C@@H](Cc1ccc2ccccc2c1)C(=O)O; AEF = NCCOc1ccc(C[C@H](N)C(=O)O)cc1; Cyclopropanecarbonyl = O=C(C1CC1)*; Pen = CC(C)(S)[C@H](N)C(=O)O; αMeK = C[C@](N)(CCCCN)C(=O)O; Thp = NC1(C(=O)O)CCOCC1; Ac3c = NC1(C(=O)O)CC1

By IC50 is commonly meant the midpoint of a concentration-inhibition curve. Higher therefore signals weaker potency in that assay.
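Note: cryopreserved PBMCs stimulated at 37 °C in 5% CO2, then lysed, with phosphorylated STAT3 quantified in lysates using a phospho-STAT panel kit.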

For the assay, the target named is IL-23R (Homo sapiens, UniProt Q5VWK5). Briefly: cell-based. The following applies: PBMC pSTAT3 IC50 (nM), PBMCs from healthy donors, IL-23 5 ng/mL, 30 minutes, phosphorylated STAT3.
Chain of IL-23R (Q5VWK5 24-629): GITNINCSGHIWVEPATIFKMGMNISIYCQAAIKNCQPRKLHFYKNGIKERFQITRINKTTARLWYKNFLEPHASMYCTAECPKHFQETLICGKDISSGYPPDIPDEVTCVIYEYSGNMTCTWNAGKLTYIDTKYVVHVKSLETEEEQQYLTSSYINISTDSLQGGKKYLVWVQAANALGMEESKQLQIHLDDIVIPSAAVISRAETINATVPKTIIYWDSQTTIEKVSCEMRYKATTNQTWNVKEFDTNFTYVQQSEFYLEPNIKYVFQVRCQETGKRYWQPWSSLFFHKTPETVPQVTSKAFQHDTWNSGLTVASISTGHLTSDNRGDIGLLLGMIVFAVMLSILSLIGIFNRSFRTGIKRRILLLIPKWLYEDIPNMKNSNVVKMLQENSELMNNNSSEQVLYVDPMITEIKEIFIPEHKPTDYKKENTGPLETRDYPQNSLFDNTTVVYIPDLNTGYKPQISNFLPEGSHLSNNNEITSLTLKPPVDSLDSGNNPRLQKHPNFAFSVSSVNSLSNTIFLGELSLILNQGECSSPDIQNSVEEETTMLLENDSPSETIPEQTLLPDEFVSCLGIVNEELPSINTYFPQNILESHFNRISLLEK
`CC(=O)N[C@H](CCCNC(=N)N)C(=O)N[C@H]1CCSC[C@@H](C(=O)N[C@@H](Cc2ccc(OCCN)cc2)C(=O)N[C@@H](Cc2ccc3ccccc3c2)C(=O)NC2(C(=O)N[C@@H](CCC(=O)O)C(=O)N[C@@H](CC(N)=O)C(=O)N[C@@](C)(Cc3ccc4ccccc4c3)C(N)=O)CCOCC2)NC(=O)[C@H](CCC(N)=O)NC(=O)[C@H](Cc2c[nH]c3ccccc23)NC(=O)[C@H]([C@@H](C)O)NC(=O)[C@H](CCC(N)=O)NC1=O` [Compound 80, Ac-[(D)Arg]-[Abu]-Q-T-W-Q-[Cys]-Phe[4-(2-aminoethoxy)]-[2-Nal]-[THP]-E-N-[aMe(2-Nal)]-NH2] showed an IC50 of 46 nM. In the case of `CC(=O)NCCCC[C@@H]1NC(=O)[C@H](Cc2c[nH]c3c(C)cccc23)NC(=O)[C@H]([C@@H](C)O)NC(=O)[C@H](CC(N)=O)NC(=O)[C@@H](NC(C)=O)CSSC[C@@](C)(C(=O)N[C@@H](Cc2ccc(OCCN)cc2)C(=O)N[C@@H](Cc2ccc3ccccc3c2)C(=O)N[C@@](C)(CCCCN)C(=O)N[C@@H](CCCCNC(C)=O)C(=O)N[C@@H](CC(N)=O)C(=O)N[C@@](C)(Cc2ccccc2)C(N)=O)NC1=O` [Compound 118, Ac-[Cys]-N-T-[W(7-Me)]-[Lys(Ac)]-[aMeCys]-Phe[4-(2-aminoethoxy)]-[2-Nal]-[a-MeLys]-[Lys(Ac)]-N-[a-MePhe]-NH2] it was 30 nM; in that of `CC(=O)NCCCC[C@@H]1NC(=O)[C@H](Cc2c[nH]c3c(C)cccc23)NC(=O)[C@H]([C@@H](C)O)NC(=O)[C@H](CC(N)=O)NC(=O)[C@@H](NC(C)=O)CSSC[C@@](C)(C(=O)N[C@@H](Cc2ccc(OCCN)cc2)C(=O)N[C@@H](Cc2ccc3ccccc3c2)C(=O)N[C@@](C)(CCCCN)C(=O)N[C@@H](CCCCNC(C)=O)C(=O)N[C@@H](CC(N)=O)C(=O)NC2(C(N)=O)CCOCC2)NC1=O` [Compound 117, Ac-[Cys]-N-T-[W(7-Me)]-[Lys(Ac)]-[aMeCys]-Phe[4-(2-aminoethoxy)]-[2-Nal]-[a-MeLys]-[Lys(Ac)]-N-[THP]-NH2], 7.1 nM. As for `CC(=O)NCCCC[C@@H]1NC(=O)[C@H](Cc2c[nH]c3ccccc23)NC(=O)[C@H]([C@@H](C)O)NC(=O)[C@H](CCC(N)=O)NC(=O)[C@@H](NC(C)=O)C(C)(C)SSC(C)(C)[C@@H](C(=O)N[C@@H](Cc2ccc(OCCN)cc2)C(=O)N[C@@H](Cc2ccc3ccccc3c2)C(=O)N[C@@](C)(CCCCN)C(=O)N[C@@H](CCCCNC(C)=O)C(=O)N[C@@H](CC(N)=O)C(=O)NC2(C(N)=O)CCOCC2)NC1=O` [Compound 84, Ac-[Pen]-Q-T-W-[Lys(Ac)]-[Pen]-Phe[4-(2-aminoethoxy)]-[2-Nal]-[a-MeLys]-[Lys(Ac)]-N-[THP]-NH2] (Ac-[Pen]QTWK(Ac)[Pen][AEF][2Nal][αMeK]K(Ac)N[Thp]-NH2; disulfide 1-6), 54 nM corresponded to half-maximal inhibition (IC50).

For `CC(=O)NCCCC[C@@H]1NC(=O)[C@H](Cc2c[nH]c3c(C)cccc23)NC(=O)[C@H]([C@@H](C)O)NC(=O)[C@H](CC(N)=O)NC(=O)[C@@H](NC(C)=O)C(C)(C)SSC(C)(C)[C@@H](C(=O)N[C@@H](Cc2ccc(OCCN)cc2)C(=O)N[C@@H](Cc2ccc3ccccc3c2)C(=O)N[C@@](C)(CCCCN)C(=O)N[C@@H](CCCCNC(C)=O)C(=O)N[C@@H](CC(N)=O)C(=O)N[C@@](C)(Cc2ccc(O)cc2)C(N)=O)NC1=O` [Compound 151, Ac-[Pen]-N-T-[W(7-Me)]-[Lys(Ac)]-[Pen]-Phe[4-(2-aminoethoxy)]-[2-Nal]-[a-MeLys]-[Lys(Ac)]-N-[aMeTyr]-NH2], the IC50 is 5.7 nM. In the case of `CC(=O)N[C@H](CCCNC(=N)N)C(=O)N[C@H]1CCSC[C@@H](C(=O)N[C@@H](Cc2ccc(OCCN)cc2)C(=O)N[C@@H](Cc2ccc3ccccc3c2)C(=O)NC2(C(=O)N[C@@](C)(CCC(=O)O)C(=O)N[C@@H](CC(N)=O)C(=O)N[C@@H](Cc3ccc(C(N)=O)cc3)C(N)=O)CCOCC2)NC(=O)[C@H](CCC(N)=O)NC(=O)[C@H](Cc2c[nH]c3ccccc23)NC(=O)[C@H]([C@@H](C)O)NC(=O)[C@H](CCC(N)=O)NC1=O` [Compound 34, Ac-[(D)Arg]-[Abu]-Q-T-W-Q-[Cys]-Phe[4-(2-aminoethoxy)]-[2-Nal]-[THP]-[aMeGlu]-N-[Phe(4-CONH2)]-NH2] it was 5.8 nM; in that of `CC(=O)NCCCC[C@@H]1NC(=O)[C@H](Cc2c[nH]c3c(C)cccc23)NC(=O)[C@H]([C@@H](C)O)NC(=O)[C@H](CC(N)=O)NC(=O)[C@@H](NC(C)=O)C(C)(C)SSC(C)(C)[C@@H](C(=O)N[C@@H](Cc2ccc(OCCN)cc2)C(=O)N[C@@H](Cc2ccc3ccccc3c2)C(=O)NC2(C(=O)N[C@@H](CCCCNC(=O)C(C)(C)C)C(=O)N[C@@H](CC(N)=O)C(=O)N[C@@](C)(Cc3ccccc3)C(N)=O)CCOCC2)NC1=O` [Compound 139, Ac-[Pen]-N-T-[W(7-Me)]-[Lys(Ac)]-[Pen]-Phe[4-(2-aminoethoxy)]-[2-Nal]-[THP]-[Lys(COtBu)]-N-[a-MePhe]-NH2], 6.6 nM; in that of `CC(=O)NCCCC[C@@H]1NC(=O)[C@H](Cc2c[nH]c3c(C)cccc23)NC(=O)[C@H]([C@@H](C)O)NC(=O)[C@H](CC(N)=O)NC(=O)[C@@H](NC(C)=O)C(C)(C)SSC(C)(C)[C@@H](C(=O)N[C@@H](Cc2ccc(OCCN)cc2)C(=O)N[C@@H](Cc2ccc3ccccc3c2)C(=O)N[C@@](C)(CCCCN)C(=O)N[C@@H](CCCCNC(C)=O)C(=O)N[C@@H](CC(N)=O)C(=O)N[C@@](C)(Cc2ccccc2)C(=O)N[C@@H](Cc2cccnc2)C(N)=O)NC1=O` [Compound 116, Ac-[Pen]-N-T-[W(7-Me)]-[Lys(Ac)]-[Pen]-Phe[4-(2-aminoethoxy)]-[2-Nal]-[a-MeLys]-[Lys(Ac)]-N-[a-MePhe]-[3Pal]-NH2], 20 nM. In the case of `CC(=O)NCCCC[C@H](NC(=O)[C@](C)(CCCCN)NC(=O)[C@H](Cc1ccc2ccccc2c1)NC(=O)[C@H](Cc1ccc(OCCN)cc1)NC(=O)[C@H]1NC(=O)[C@H](CCC(N)=O)NC(=O)[C@H](Cc2c[nH]c3c(C)cccc23)NC(=O)[C@H]([C@@H](C)O)NC(=O)[C@H](CC(N)=O)NC(=O)[C@@H](NC(C)=O)C(C)(C)SSC1(C)C)C(=O)N[C@@H](CC(N)=O)C(=O)N[C@@](C)(Cc1ccccc1)C(N)=O` [Compound 89, Ac-[Pen]-N-T-[W(7-Me)]-Q-[Pen]-Phe[4-(2-aminoethoxy)]-[2-Nal]-[a-MeLys]-[Lys(Ac)]-N-[a-MePhe]-NH2] it was 12 nM; in that of `CC(=O)N[C@H](CCCNC(=N)N)C(=O)N[C@@H]1C(=O)N[C@@H](CCC(N)=O)C(=O)N[C@@H]([C@@H](C)O)C(=O)N[C@@H](Cc2c[nH]c3ccccc23)C(=O)N[C@@H](CCC(N)=O)C(=O)N[C@H](C(=O)N[C@@H](Cc2ccc(OCCN)cc2)C(=O)N[C@@H](Cc2ccc3ccccc3c2)C(=O)NC2(C(=O)N[C@@H](CCCCNC(=O)C3CC3)C(=O)N[C@@H](CC(N)=O)C(=O)N[C@@H](Cc3ccccc3)C(N)=O)CCOCC2)C(C)(C)SSC1(C)C` [Compound 55, Ac-[(D)Arg]-[Pen]-Q-T-W-Q-[Pen]-Phe[4-(2-aminoethoxy)]-[2-Nal]-[THP]-[Lys(COcPr)]-N-F-NH2] (Ac-[dR][Pen]QTWQ[Pen][AEF][2Nal][Thp]K(Cyclopropanecarbonyl)NF-NH2; disulfide 2-7), 25 nM; in that of `CC(=O)N[C@H](CCCNC(=N)N)C(=O)N[C@@H]1C(=O)N[C@@H](CCC(N)=O)C(=O)N[C@@H]([C@@H](C)O)C(=O)N[C@@H](Cc2c[nH]c3ccccc23)C(=O)N[C@@H](CCC(N)=O)C(=O)N[C@H](C(=O)N[C@@H](Cc2ccc(OCCN)cc2)C(=O)N[C@@H](Cc2ccc3ccccc3c2)C(=O)NC2(C(=O)N[C@@H](CCCCNC(=O)C3CC3)C(=O)N[C@@H](CC(N)=O)C(=O)NC3(C(N)=O)CCOCC3)CCOCC2)C(C)(C)SSC1(C)C` [Compound 51, Ac-[(D)Arg]-[Pen]-Q-T-W-Q-[Pen]-Phe[4-(2-aminoethoxy)]-[2-Nal]-[THP]-[Lys(COcPr)]-N-[THP]-NH2], 27 nM. With `CC(=O)NCCCC[C@H](NC(=O)[C@](C)(CCCCN)NC(=O)[C@H](Cc1ccc2ccccc2c1)NC(=O)[C@H](Cc1ccc(OCCN)cc1)NC(=O)[C@]1(C)CSSC[C@H](NC(C)=O)C(=O)N[C@@H](CC(N)=O)C(=O)N[C@@H]([C@@H](C)O)C(=O)N[C@@H](Cc2c[nH]c3c(C)cccc23)C(=O)N[C@@H](CCC(N)=O)C(=O)N1)C(=O)N[C@@H](CC(N)=O)C(=O)N[C@@](C)(Cc1ccccc1)C(N)=O` [Compound 119, Ac-[Cys]-N-T-[W(7-Me)]-Q-[aMeCys]-Phe[4-(2-aminoethoxy)]-[2-Nal]-[a-MeLys]-[Lys(Ac)]-N-[a-MePhe]-NH2], the concentration for half-maximal inhibition (IC50) was 5.3 nM. The compound `CC(=O)Nc1ccc(C[C@@H]2NC(=O)[C@H](Cc3c[nH]c4c(C)cccc34)NC(=O)[C@H]([C@@H](C)O)NC(=O)[C@H](CC(N)=O)NC(=O)[C@@H](NC(=O)[C@@H](CCCNC(=N)N)NC(C)=O)C(C)(C)SSC(C)(C)[C@@H](C(=O)N[C@@H](Cc3ccc(OCCN)cc3)C(=O)N[C@@H](Cc3ccc4ccccc4c3)C(=O)NC3(C(=O)N[C@@H](CCC(=O)O)C(=O)N[C@@H](CC(N)=O)C(=O)NC4(C(N)=O)CCOCC4)CC3)NC2=O)cc1` [Compound 306, MeCO-r-Pen-N-T-7MeW-Paf(Ac)-Pen-AEF-2Nal-Acpx-E-N-THP---CONH2] (Ac-[dR][Pen]NT[Trp(7-Me)][Phe(4-NH2)](Ac)[Pen][AEF][2Nal][Ac3c]EN[Thp]-NH2; disulfide 2-7) came in with an IC50 of 9.6 nM.

As to `CC(=O)NCCCC[C@H](NC(=O)[C@](C)(CCCCN)NC(=O)[C@H](Cc1ccc2ccccc2c1)NC(=O)[C@H](Cc1ccc(OCCN)cc1)NC(=O)[C@]1(C)CSSC[C@H](NC(C)=O)C(=O)N[C@@H](CC(N)=O)C(=O)N[C@@H]([C@@H](C)O)C(=O)N[C@@H](Cc2c[nH]c3c(C)cccc23)C(=O)N[C@@H](CCC(N)=O)C(=O)N1)C(=O)N[C@@H](CC(N)=O)C(=O)NC1(C(N)=O)CCOCC1` [Compound 120, Ac-[Cys]-N-T-[W(7-Me)]-Q-[aMeCys]-Phe[4-(2-aminoethoxy)]-[2-Nal]-[a-MeLys]-[Lys(Ac)]-N-[THP]-NH2], the IC50 is 4.9 nM.
